Results as given in PubChem BioAssay (NCI).
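Dose response: 5 concentrations. Exposure: 48 h. Format: 96-well plates. Endpoint: linear interpolation; highest concentration if not reached. TGI: total growth inhibition.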

Assays:
Experiment in all cases: growth of human tumour cells (NCI), 48 h
[1] = tested on: 786-0 renal
[2] = tested on: A498 renal
[3] = tested on: A549 NSCLC
[4] = tested on: ACHN renal
[5] = tested on: BT-549 breast
[6] = tested on: CAKI-1 renal
[7] = tested on: CCRF-CEM leukemia
[8] = tested on: COLO 205 colon
[9] = tested on: DU-145 prostate
[10] = tested on: EKVX NSCLC
[11] = tested on: HCC-2998 colon
[12] = tested on: HCT-116 colon
[13] = tested on: HCT-15 colon
[14] = tested on: HL-60(TB) leukemia
[15] = tested on: HOP-62 NSCLC
[16] = tested on: HOP-92 NSCLC
[17] = tested on: HS 578T breast
[18] = tested on: HT29 colon
[19] = tested on: K-562 leukemia
[20] = tested on: KM12 colon
[21] = tested on: LOX IMVI melanoma
[22] = tested on: M14 melanoma
[23] = tested on: MALME-3M melanoma
[24] = tested on: MDA-MB-231 breast
[25] = tested on: MDA-MB-435
[26] = tested on: MDA-N
[27] = tested on: MOLT-4 leukemia
[28] = tested on: NCI-H226 lung
[29] = tested on: NCI-H460 lung
[30] = tested on: NCI-H522 lung
[31] = tested on: NCI/ADR-RES ovarian
[32] = tested on: OVCAR-3 ovarian
[33] = tested on: OVCAR-4 ovarian
[34] = tested on: OVCAR-5 ovarian
[35] = tested on: OVCAR-8 ovarian
[36] = tested on: PC-3 prostate
[37] = tested on: RPMI-8226 leukemia
[38] = tested on: RXF 393 renal
[39] = tested on: SF-268 CNS
[40] = tested on: SF-539 CNS
[41] = tested on: SK-MEL-2 melanoma
[42] = tested on: SK-MEL-28 melanoma
[43] = tested on: SK-MEL-5 melanoma
[44] = tested on: SK-OV-3 ovarian
[45] = tested on: SN12C renal
[46] = tested on: SNB-19 CNS
[47] = tested on: SNB-75 CNS
[48] = tested on: SR leukemia
[49] = tested on: SW-620 colon
[50] = tested on: T-47D breast
[51] = tested on: TK-10 renal
[52] = tested on: U251 CNS
[53] = tested on: UACC-257 melanoma
[54] = tested on: UACC-62 melanoma
[55] = tested on: UO-31 renal
[56] = tested on: IGROV1 ovarian
[57] = tested on: MCF7 breast
[58] = tested on: NCI-H23 lung
[59] = tested on: SF-295 CNS

Q: What does the source list for `Cc1cc(S(=O)(=O)/N=C(/NN)NNc2cccc(C(F)(F)F)n2)c(S)cc1Cl`?
A: TGI [1]: 47.9 µM; TGI [2]: 50.1 µM; TGI [3]: 44.1 µM; TGI [4]: 50.1 µM; TGI [5]: 36.7 µM; TGI [6]: 57.1 µM; TGI [7]: 63.6 µM; TGI [8]: 38.5 µM; TGI [9]: 34.1 µM; TGI [10]: 63.8 µM; TGI [11]: 31.2 µM; TGI [12]: 50.6 µM; TGI [13]: 38.2 µM; TGI [14]: 71.6 µM; TGI [15]: 86.4 µM; TGI [16]: 23.8 µM; TGI [17]: 54.4 µM; TGI [18]: 43.1 µM; TGI [19]: 82.6 µM; TGI [20]: 37.2 µM; TGI [21]: 39.7 µM; TGI [22]: 39.9 µM; TGI [23]: 42.1 µM; TGI [24]: > 100 µM; TGI [25]: 40.6 µM; TGI [26]: 29.2 µM; TGI [27]: 45.7 µM; TGI [28]: 46 µM; TGI [29]: 72.8 µM; TGI [30]: 60.4 µM; TGI [31]: 46.2 µM; TGI [32]: 62.7 µM; TGI [33]: 36 µM; TGI [34]: 29.5 µM; TGI [35]: 58.3 µM; TGI [36]: 50.7 µM; TGI [37]: > 100 µM; TGI [38]: 57.2 µM; TGI [39]: 57.4 µM; TGI [40]: 43.6 µM; TGI [41]: 63.2 µM; TGI [42]: 33.5 µM; TGI [43]: 37.9 µM; TGI [44]: 53 µM; TGI [45]: > 100 µM; TGI [46]: 68.8 µM; TGI [47]: 32 µM; TGI [48]: 55.1 µM; TGI [49]: 39.3 µM; TGI [50]: 40.7 µM; TGI [51]: 51.8 µM; TGI [52]: 33.6 µM; TGI [53]: 89.9 µM; TGI [54]: 37 µM; TGI [55]: 37.2 µM

Q: How did the TGI [1] turn out when `CC1=C(C)C(=O)C(C2=CC(=O)C=CC2=O)=C(C2=CC(=O)C=CC2=O)C1=O` was run?
A: > 100 µM

Q: What about the TGI [2] of the same compound?
A: > 100 µM

Q: What about the TGI [3] of the same compound?
A: > 100 µM

Q: And the TGI [4]?
A: > 100 µM

Q: What about the TGI [5] of the same compound?
A: > 100 µM

Q: What about the TGI [6] of the same compound?
A: > 56.6 µM

Q: And the TGI [7]?
A: > 100 µM

Q: What about the TGI [8] of the same compound?
A: > 100 µM

Q: And the TGI [9]?
A: > 100 µM

Q: And the TGI [10]?
A: > 100 µM

Q: What about the TGI [11] of the same compound?
A: > 100 µM

Q: And the TGI [12]?
A: > 79.2 µM

Q: What about the TGI [13] of the same compound?
A: > 100 µM

Q: And the TGI [14]?
A: > 100 µM

Q: What about the TGI [15] of the same compound?
A: > 100 µM

Q: What about the TGI [16] of the same compound?
A: > 78.9 µM

Q: What about the TGI [17] of the same compound?
A: > 100 µM

Q: And the TGI [18]?
A: > 100 µM

Q: What about the TGI [56] of the same compound?
A: > 100 µM

Q: And the TGI [20]?
A: > 100 µM

Q: And the TGI [21]?
A: > 96.1 µM

Q: What about the TGI [22] of the same compound?
A: > 100 µM

Q: What about the TGI [23] of the same compound?
A: > 100 µM

Q: And the TGI [57]?
A: > 81.4 µM

Q: What about the TGI [24] of the same compound?
A: 42.5 µM

Q: What about the TGI [25] of the same compound?
A: > 83.7 µM

Q: What about the TGI [26] of the same compound?
A: > 59.3 µM

Q: What about the TGI [27] of the same compound?
A: 44.8 µM

Q: And the TGI [28]?
A: > 100 µM

Q: What about the TGI [58] of the same compound?
A: > 100 µM

Q: What about the TGI [29] of the same compound?
A: > 100 µM

Q: What about the TGI [30] of the same compound?
A: 64.7 µM

Q: What about the TGI [31] of the same compound?
A: > 100 µM

Q: What about the TGI [33] of the same compound?
A: 51.3 µM

Q: And the TGI [34]?
A: > 100 µM

Q: What about the TGI [35] of the same compound?
A: > 87.7 µM

Q: And the TGI [36]?
A: > 100 µM

Q: And the TGI [38]?
A: > 100 µM

Q: And the TGI [39]?
A: > 100 µM

Q: What about the TGI [59] of the same compound?
A: > 100 µM

Q: What about the TGI [40] of the same compound?
A: 51.7 µM

Q: What about the TGI [41] of the same compound?
A: > 100 µM

Q: What about the TGI [42] of the same compound?
A: > 100 µM

Q: What about the TGI [43] of the same compound?
A: 46.2 µM

Q: What about the TGI [44] of the same compound?
A: > 100 µM

Q: And the TGI [45]?
A: > 71.8 µM

Q: What about the TGI [46] of the same compound?
A: > 100 µM

Q: What about the TGI [47] of the same compound?
A: > 100 µM

Q: What about the TGI [49] of the same compound?
A: > 76.2 µM

Q: And the TGI [50]?
A: 77.5 µM

Q: What about the TGI [51] of the same compound?
A: > 100 µM

Q: And the TGI [52]?
A: > 77.5 µM

Q: And the TGI [53]?
A: > 100 µM

Q: What about the TGI [54] of the same compound?
A: > 100 µM

Q: What about the TGI [55] of the same compound?
A: > 100 µM
